From patent EP4745137A1 (Gluetacs Therapeutics (Shanghai) Co., Ltd., priority 2023, dated 2025) come the findings set out here.

The test system of assay [1] is Jurkat. Kind of assay: Tumor cell proliferation inhibition (CellTiter-Meiluncell Luminescent Cell Viability Assay), Jurkat. Particulars: Homo sapiens, 96 h, read-out: inhibitory activity (IC50, nM) against tumor cells proliferation, Jurkat.
Assay [2] has as its system NCI-H1975. Kind of assay: Tumor cell proliferation inhibition (CellTiter-Meiluncell Luminescent Cell Viability Assay), NCI-H1975. The following applies: Homo sapiens, NCI-H1975, 96 h, read-out: inhibitory activity (IC50, nM) against tumor cells proliferation, H1975.
The target in assay [3] is T1, IKZF3 (Homo sapiens, UniProt Q96SW2+Q9UKT9).
T1 construct: endogenous in cells; host or cells: hPBMCs (Milecell Biotechnologies)
The experiment in a line: Western-blot assay of substrate protein degradation in hPBMCs, IKZF3. It counts as cell-based. Particulars: 24 hours of compound treatment, compounds tested at 50 nM and 500 nM (concentration of the table not stated).

In assay [4] the target is T2, CK1α (Homo sapiens, UniProt P48729+Q96SW2).
T2 construct: endogenous in cells; host or cells: hPBMCs (Milecell Biotechnologies)
Kind of assay: Western-blot assay of substrate protein degradation in hPBMCs, CK1α. It counts as cell-based. Particulars: 24 hours of compound treatment, compounds tested at 50 nM and 500 nM (concentration of the table not stated).

Assay [5] addresses T3, WEE1 (Homo sapiens, UniProt P30291+Q96SW2).
T3 construct: endogenous in cells; host or cells: hPBMCs (Milecell Biotechnologies)
Kind of assay: Western-blot assay of substrate protein degradation in hPBMCs, WEE1. It counts as cell-based. Particulars: 24 hours of compound treatment, compounds tested at 50 nM and 500 nM (concentration of the table not stated).

In assay [6] the test system is MM.1R. The experiment in a line: Tumor cell proliferation inhibition (CellTiter-Meiluncell Luminescent Cell Viability Assay), MM.1R. The following applies: Homo sapiens, 96 h, read-out: inhibitory activity (IC50, nM) against tumor cells proliferation, MM.1R.
In assay [7] the test system is Human acute T lymphocytic leukemia cells (Molt-4). Kind of assay: Tumor cell proliferation inhibition (CellTiter-Meiluncell Luminescent Cell Viability Assay), Molt-4. The following applies: MOLT-4, 96 h, read-out: inhibitory activity (IC50, nM) against tumor cells proliferation, Molt 4.
Assay [8] concerns Human breast cancer cells (MDA-MB-231). The experiment in a line: Tumor cell proliferation inhibition (CellTiter-Meiluncell Luminescent Cell Viability Assay), MDA-MB-231. Particulars: MDA-MB-231, 96 h, read-out: inhibitory activity (IC50, nM) against tumor cells proliferation, MDA-MB-231.
Assay [9] addresses T4, GSPT1 (Homo sapiens, UniProt P15170+Q96SW2).
T4 construct: endogenous in cells; host or cells: hPBMCs (Milecell Biotechnologies)
The experiment in a line: Western-blot assay of substrate protein degradation in hPBMCs, GSPT1. Particulars: 24 hours of compound treatment, compounds tested at 50 nM and 500 nM (concentration of the table not stated). Format: cell-based.

The target of assay [10] is T5, IKZF1 (Homo sapiens, UniProt Q13422+Q96SW2).
T5 construct: endogenous in cells; host or cells: hPBMCs (Milecell Biotechnologies)
Kind of assay: Western-blot assay of substrate protein degradation in hPBMCs, IKZF1. Format: cell-based. Particulars: 24 hours of compound treatment, compounds tested at 50 nM and 500 nM (concentration of the table not stated).

Assay [11] concerns CAL-62. Kind of assay: Tumor cell proliferation inhibition (CellTiter-Meiluncell Luminescent Cell Viability Assay), CAL-62. The following applies: Homo sapiens, CAL-62, 96 h, read-out: inhibitory activity (IC50, nM) against tumor cells proliferation, CAL-62.
The target in assay [12] is T6, human Cereblon WT GST-tagged protein (Homo sapiens, UniProt Q96SW2).
T6 construct: purchased CISBIO 64BDCRBNPEH
Kind of assay: CRBN-binding affinity by HTRF (CEREBLON BINDING kit). Particulars: HTRF inhibitory activity, CEREBLON BINDING kit; read-out: HTRF IC50.

The target of assay [13] is T7, IKZF2 (Homo sapiens, UniProt Q96SW2+Q9UKS7).
T7 construct: endogenous in cells; host or cells: hPBMCs (Milecell Biotechnologies)
Kind of assay: Western-blot assay of substrate protein degradation in hPBMCs, IKZF2. It counts as cell-based. The following applies: 24 hours of compound treatment, compounds tested at 50 nM and 500 nM (concentration of the table not stated).

Where only a bound is given, the exact number is not on record here.

T6 sequence (Q96SW2 whole entry): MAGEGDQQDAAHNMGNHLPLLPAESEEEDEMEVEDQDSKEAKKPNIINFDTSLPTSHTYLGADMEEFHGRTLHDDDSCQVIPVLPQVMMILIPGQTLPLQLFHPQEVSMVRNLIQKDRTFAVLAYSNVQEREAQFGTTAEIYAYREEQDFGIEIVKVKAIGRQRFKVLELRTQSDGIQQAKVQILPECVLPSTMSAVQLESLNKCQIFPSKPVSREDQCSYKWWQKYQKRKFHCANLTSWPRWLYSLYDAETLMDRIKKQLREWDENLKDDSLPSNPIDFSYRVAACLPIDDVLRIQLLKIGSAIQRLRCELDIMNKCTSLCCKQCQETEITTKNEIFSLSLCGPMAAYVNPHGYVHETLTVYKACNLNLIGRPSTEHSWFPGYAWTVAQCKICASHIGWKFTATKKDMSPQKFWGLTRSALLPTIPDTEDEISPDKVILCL
T1 sequence (Q9UKT9 whole entry): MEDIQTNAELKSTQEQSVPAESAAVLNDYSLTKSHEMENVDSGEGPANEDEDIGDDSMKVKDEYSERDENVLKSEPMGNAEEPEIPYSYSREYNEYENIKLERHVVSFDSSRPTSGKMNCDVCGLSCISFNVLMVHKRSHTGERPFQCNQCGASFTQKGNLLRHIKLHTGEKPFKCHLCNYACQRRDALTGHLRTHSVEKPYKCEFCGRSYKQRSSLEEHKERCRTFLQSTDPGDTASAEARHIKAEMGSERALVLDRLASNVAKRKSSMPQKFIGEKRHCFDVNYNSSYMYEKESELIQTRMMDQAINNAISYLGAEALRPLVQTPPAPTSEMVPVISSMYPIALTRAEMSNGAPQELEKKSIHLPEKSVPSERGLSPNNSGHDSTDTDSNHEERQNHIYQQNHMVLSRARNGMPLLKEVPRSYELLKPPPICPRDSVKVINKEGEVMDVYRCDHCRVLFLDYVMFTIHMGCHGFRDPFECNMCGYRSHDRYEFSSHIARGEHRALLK
T1 sequence (Q96SW2 whole entry): as the sequence (Q96SW2 whole entry) above
T1 sequence (Q16531 whole entry partner): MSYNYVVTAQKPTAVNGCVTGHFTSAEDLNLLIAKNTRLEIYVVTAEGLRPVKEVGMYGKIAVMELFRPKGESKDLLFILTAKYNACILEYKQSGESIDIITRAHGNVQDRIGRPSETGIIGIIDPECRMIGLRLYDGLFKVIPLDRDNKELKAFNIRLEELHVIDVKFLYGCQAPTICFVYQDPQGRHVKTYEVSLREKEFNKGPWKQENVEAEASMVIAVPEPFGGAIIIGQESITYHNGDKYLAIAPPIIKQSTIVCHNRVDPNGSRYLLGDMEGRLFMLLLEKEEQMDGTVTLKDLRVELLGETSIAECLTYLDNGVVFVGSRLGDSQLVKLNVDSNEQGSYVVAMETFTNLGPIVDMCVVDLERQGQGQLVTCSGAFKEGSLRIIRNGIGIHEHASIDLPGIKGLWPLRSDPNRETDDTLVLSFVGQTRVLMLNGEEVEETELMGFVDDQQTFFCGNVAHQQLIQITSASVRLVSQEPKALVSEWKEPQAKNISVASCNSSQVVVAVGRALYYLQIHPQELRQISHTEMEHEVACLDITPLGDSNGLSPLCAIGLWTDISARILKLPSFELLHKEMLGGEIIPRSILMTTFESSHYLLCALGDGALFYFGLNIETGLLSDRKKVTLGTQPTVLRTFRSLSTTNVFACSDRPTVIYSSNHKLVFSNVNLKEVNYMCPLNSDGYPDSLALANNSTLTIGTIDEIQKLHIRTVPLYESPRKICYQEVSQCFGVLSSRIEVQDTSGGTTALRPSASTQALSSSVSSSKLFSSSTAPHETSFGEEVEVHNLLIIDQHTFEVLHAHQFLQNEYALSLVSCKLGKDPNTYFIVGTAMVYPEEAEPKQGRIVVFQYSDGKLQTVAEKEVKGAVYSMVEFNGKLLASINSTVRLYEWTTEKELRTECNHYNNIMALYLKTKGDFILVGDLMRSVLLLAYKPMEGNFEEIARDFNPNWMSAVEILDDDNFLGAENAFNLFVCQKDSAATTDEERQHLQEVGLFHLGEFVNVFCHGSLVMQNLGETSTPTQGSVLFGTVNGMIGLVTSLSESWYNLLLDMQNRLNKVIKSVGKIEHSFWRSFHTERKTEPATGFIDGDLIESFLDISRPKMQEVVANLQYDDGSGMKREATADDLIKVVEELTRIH
T5 sequence (Q13422 whole entry): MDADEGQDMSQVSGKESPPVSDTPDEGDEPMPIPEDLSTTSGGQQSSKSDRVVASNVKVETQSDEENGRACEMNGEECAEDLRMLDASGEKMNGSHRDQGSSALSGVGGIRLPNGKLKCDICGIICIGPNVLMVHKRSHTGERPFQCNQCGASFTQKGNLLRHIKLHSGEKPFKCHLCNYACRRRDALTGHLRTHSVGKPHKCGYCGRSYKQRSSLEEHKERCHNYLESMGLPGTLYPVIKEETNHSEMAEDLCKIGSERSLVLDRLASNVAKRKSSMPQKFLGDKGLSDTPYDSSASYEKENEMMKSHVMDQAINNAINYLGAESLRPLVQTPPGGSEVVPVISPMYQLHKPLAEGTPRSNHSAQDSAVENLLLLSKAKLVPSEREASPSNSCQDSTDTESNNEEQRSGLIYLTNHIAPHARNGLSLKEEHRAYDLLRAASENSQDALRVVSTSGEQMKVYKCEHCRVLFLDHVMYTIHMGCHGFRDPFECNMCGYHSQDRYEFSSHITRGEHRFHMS
T5 sequence (Q96SW2 whole entry): as the sequence (Q96SW2 whole entry) above
T5 sequence (Q16531 whole entry partner): as the sequence (Q16531 whole entry partner) above
T4 sequence (P15170 whole entry): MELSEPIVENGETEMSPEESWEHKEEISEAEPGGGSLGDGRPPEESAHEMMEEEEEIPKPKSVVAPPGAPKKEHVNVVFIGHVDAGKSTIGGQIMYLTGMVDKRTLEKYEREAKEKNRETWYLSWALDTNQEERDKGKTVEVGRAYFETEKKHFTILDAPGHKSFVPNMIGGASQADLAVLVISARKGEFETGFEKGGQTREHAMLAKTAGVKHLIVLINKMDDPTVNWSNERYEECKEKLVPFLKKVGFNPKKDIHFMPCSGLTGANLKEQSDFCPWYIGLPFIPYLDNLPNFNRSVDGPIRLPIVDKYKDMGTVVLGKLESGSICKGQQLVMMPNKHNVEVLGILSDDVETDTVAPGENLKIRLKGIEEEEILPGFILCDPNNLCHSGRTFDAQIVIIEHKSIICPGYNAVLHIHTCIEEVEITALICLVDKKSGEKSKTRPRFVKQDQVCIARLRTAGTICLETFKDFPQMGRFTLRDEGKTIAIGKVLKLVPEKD
T4 sequence (Q96SW2 whole entry): as the sequence (Q96SW2 whole entry) above
T4 sequence (Q16531 whole entry partner): as the sequence (Q16531 whole entry partner) above
T7 sequence (Q9UKS7 whole entry): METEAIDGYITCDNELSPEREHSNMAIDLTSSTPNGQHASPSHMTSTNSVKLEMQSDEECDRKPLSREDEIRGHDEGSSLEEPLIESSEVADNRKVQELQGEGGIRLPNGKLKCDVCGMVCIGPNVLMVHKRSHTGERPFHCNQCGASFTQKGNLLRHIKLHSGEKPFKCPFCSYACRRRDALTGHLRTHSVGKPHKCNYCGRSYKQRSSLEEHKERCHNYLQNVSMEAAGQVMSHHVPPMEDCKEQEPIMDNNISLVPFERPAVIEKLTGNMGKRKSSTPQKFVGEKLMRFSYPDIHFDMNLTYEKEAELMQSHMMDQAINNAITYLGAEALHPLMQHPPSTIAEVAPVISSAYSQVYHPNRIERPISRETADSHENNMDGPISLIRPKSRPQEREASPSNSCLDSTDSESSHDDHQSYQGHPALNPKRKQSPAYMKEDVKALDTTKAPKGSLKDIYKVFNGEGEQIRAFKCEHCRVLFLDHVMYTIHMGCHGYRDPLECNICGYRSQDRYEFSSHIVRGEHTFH
T7 sequence (Q96SW2 whole entry): as the sequence (Q96SW2 whole entry) above
T7 sequence (Q16531 whole entry partner): as the sequence (Q16531 whole entry partner) above
T2 sequence (P48729 whole entry): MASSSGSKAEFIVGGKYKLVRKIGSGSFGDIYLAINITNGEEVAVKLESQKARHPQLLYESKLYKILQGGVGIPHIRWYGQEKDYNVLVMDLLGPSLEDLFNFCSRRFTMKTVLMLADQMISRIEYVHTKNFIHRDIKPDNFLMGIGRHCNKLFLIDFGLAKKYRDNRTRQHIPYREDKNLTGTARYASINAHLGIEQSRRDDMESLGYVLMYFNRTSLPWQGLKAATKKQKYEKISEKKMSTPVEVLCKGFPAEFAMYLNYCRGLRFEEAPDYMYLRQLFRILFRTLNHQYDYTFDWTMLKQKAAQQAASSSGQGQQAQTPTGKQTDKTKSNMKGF
T2 sequence (Q96SW2 whole entry): as the sequence (Q96SW2 whole entry) above
T2 sequence (Q16531 whole entry partner): as the sequence (Q16531 whole entry partner) above

For the compound `O=C1CCC(N2Cc3cc(CN4CCC(c5cccc(Cl)c5Cl)CC4)ccc3C2=O)C(=O)N1` (stereo not drawn) [GT-04551, 3-(5-((4-(2,3-dichlorophenyl)piperidin-1-yl)methyl)-1-oxoisoindolin-2-yl)piperidine-2,6-dione], the IC50 in assay [1] was < 1 nM; in assay [2] it was 5 to 10 nM; in assay [6], 1 to 5 nM; in [7] it was 1 to 5 nM; in assay [8] it was 10 to 50 nM; in assay [11] it was 1 to 5 nM. Besides, the IC50 in assay [12] is 500 to 1000 nM. Also, in assay [3], the “IKZF3 substrate protein remaining %” value is recorded as “A (0% ≤ substrate protein remaining % ≤ 80%)”. The “CK1a substrate protein remaining %” value in assay [4] was “A (0% ≤ substrate protein remaining % ≤ 80%)”. Besides, in assay [5], the “Weel substrate protein remaining %” value is “A (0% ≤ substrate protein remaining % ≤ 80%)”. In [9], the “GSPT1 substrate protein remaining %” value is “A (0% ≤ substrate protein remaining % ≤ 80%)”. Further, the “IKZF 1 substrate protein remaining %” value in assay [10] is reported as “A (0% ≤ substrate protein remaining % ≤ 80%)”. For the same compound, the “IKZF2 substrate protein remaining %” value in assay [13] is listed as “A (0% ≤ substrate protein remaining % ≤ 80%)”.

On to `O=C1CCC(N2Cc3cc(CN4CCC(c5cccc(F)c5F)CC4)ccc3C2=O)C(=O)N1` (stereo not drawn) [GT-04552, 3-(5-((4-(2,3-difluorophenyl)piperidin-1-yl)methyl)-1-oxoisoindolin-2-yl)piperidine-2,6-dione], for which the IC50 in assay [1] fell in the range of 1 to 5 nM; in [2], 10 to 50 nM; in assay [6], 5 to 10 nM; in assay [7] it was 1 to 5 nM; in assay [8] it was 50 to 100 nM; in [11] it was 5 to 10 nM. Moreover, in [12], the IC50 is 1000 to 1500 nM. Moreover, the “IKZF3 substrate protein remaining %” value in assay [3] was “A (0% ≤ substrate protein remaining % ≤ 80%)”. In addition, the “CK1a substrate protein remaining %” value in [4] is “A (0% ≤ substrate protein remaining % ≤ 80%)”. The “Weel substrate protein remaining %” value in assay [5] is “A (0% ≤ substrate protein remaining % ≤ 80%)”. In addition, in assay [9], the “GSPT1 substrate protein remaining %” value is given as “A (0% ≤ substrate protein remaining % ≤ 80%)”. In addition, the “IKZF 1 substrate protein remaining %” value in assay [10] is on record as “A (0% ≤ substrate protein remaining % ≤ 80%)”. Further, the “IKZF2 substrate protein remaining %” value in assay [13] is reported as “A (0% ≤ substrate protein remaining % ≤ 80%)”.

Consider `O=C1CCC(N2Cc3cc(CN4CCC(c5cccc(F)c5Cl)CC4)ccc3C2=O)C(=O)N1` (stereo not drawn) [GT-04553, 3-(5-((4-(2-chloro-3-fluorophenyl)piperidin-1-yl)methyl)-1-oxoisoindolin-2-yl)piperidine-2,6-dione], for which the IC50 in assay [1] was 1 to 5 nM; in assay [2], 10 to 50 nM; in assay [6], 1 to 5 nM; in [7], 1 to 5 nM; in [8], 10 to 50 nM; in assay [11] it was 1 to 5 nM. Further, in assay [12], the IC50 lay in the range of 1000 to 1500 nM. In addition, the “IKZF3 substrate protein remaining %” value in assay [3] is “A (0% ≤ substrate protein remaining % ≤ 80%)”. Moreover, the “CK1a substrate protein remaining %” value in assay [4] was “A (0% ≤ substrate protein remaining % ≤ 80%)”. Further, in assay [5], the “Weel substrate protein remaining %” value is “A (0% ≤ substrate protein remaining % ≤ 80%)”. Besides, in [9], the “GSPT1 substrate protein remaining %” value is recorded as “A (0% ≤ substrate protein remaining % ≤ 80%)”. Further, the “IKZF 1 substrate protein remaining %” value in assay [10] is “A (0% ≤ substrate protein remaining % ≤ 80%)”. For the same compound, the “IKZF2 substrate protein remaining %” value in assay [13] is reported as “A (0% ≤ substrate protein remaining % ≤ 80%)”.
